According to US11918582B2 (RAPT Therapeutics, Inc., priority 2021, dated 2024):
Where a name gives a salt, the structure may show the parent alone.

Target: T1, human HPK1 (MAP4K1) (Homo sapiens, UniProt Q92918)
T1 construct: Recombinant human HPK1 kinase domain was obtained from ThermoFisher (Cat. #PV6357) and SignalChem (Cat. #M23-11G); purchased ThermoFisher; SignalChem PV6357; M23-11G
T1 sequence (Q92918 17-274 limits assumed): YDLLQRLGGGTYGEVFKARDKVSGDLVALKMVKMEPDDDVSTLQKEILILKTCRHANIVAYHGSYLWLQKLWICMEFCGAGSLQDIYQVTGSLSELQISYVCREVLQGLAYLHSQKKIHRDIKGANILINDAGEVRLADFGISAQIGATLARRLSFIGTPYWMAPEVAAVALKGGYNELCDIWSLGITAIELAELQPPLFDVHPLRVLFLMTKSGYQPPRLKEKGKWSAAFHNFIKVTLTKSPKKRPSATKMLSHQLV
Experiment: Biochemical assay for activity against HPK1 (ADP-Glo, MBP substrate)
Conditions: recombinant human HPK1 kinase domain, 1 nM enzyme, ADP-Glo luminescence
Summary of the method: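 Recombinant human HPK1 kinase domain (1 nM solution) preincubated 15 min at room temperature with compounds in pH 7.5 HEPES buffer with NaCl, TCEP, MgCl2, Tween-20, BSA. MBP substrate with ATP added, reaction run 2 h at room temperature. ADP formation read by ADP-Glo luminescence to give IC50.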

SMILES	IC50
COc1cc2c(cc1Nc1ncc3cnn([C@H]4CCC[C@H](O)C4)c3n1)CN(C)CC2 (racemic) [Example 44, rac-(trans)-3-(6-((6-methoxy-2-methyl-1,2,3,4-tetrahydroisoquinolin-7-yl)amino)-1H-pyrazolo[3,4-d]pyrimidin-1-yl)cyclohexan-1-ol]	< 100 nM
CN1CCc2ccc(Nc3ncc4cnn(C56CC7CC(CC(C7)C5)C6)c4n3)cc2C1 [Example 103, N-(1-((3s,5s,7s)-adamantan-1-yl)-1H-pyrazolo[3,4-d]pyrimidin-6-yl)-2-methyl-1,2,3,4-tetrahydroisoquinolin-7-amine]	< 100 nM
COc1cc2c(cc1Nc1ncc3cnn(Cc4cc[nH]c(=O)c4)c3n1)CN(C)CC2 [Example 219, 4-[[6-[(6-methoxy-2-methyl-3,4-dihydro-1H-isoquinolin-7-yl)amino]pyrazolo[3,4-d]pyrimidin-1-yl]methyl]-1H-pyridin-2-one]	< 100 nM
COc1cc2c(cc1Nc1ncc3cnn(C[C@@H]4CCCN4C(C)=O)c3n1)CN(C[C@@H](C)O)CC2 [Example 195, 1-((S)-2-((6-((2-((R)-2-hydroxypropyl)-6-methoxy-1,2,3,4-tetrahydroisoquinolin-7-yl)amino)-1H-pyrazolo[3,4-d]pyrimidin-1-yl)methyl)pyrrolidin-1-yl)ethan-1-one]	< 100 nM
COc1cc2c(cc1Nc1ncc3cnn(C[C@H]4CCC[C@@H]4C(=O)O)c3n1)CN(C)CC2 [Example 158, (1S,2S)-2-[[6-[(6-methoxy-2-methyl-3,4-dihydro-1H-isoquinolin-7-yl)amino]pyrazolo[3,4-d]pyrimidin-1-yl]methyl]cyclopentanecarboxylic Acid]	< 100 nM
COc1cc2c(cc1Nc1ncc3cnn([C@H]4CCC[C@H](C(N)=O)C4)c3n1)CN(C)CC2 (racemic) [Example 29, rac-(1S,3S)-3-(6-((6-methoxy-2-methyl-1,2,3,4-tetrahydroisoquinolin-7-yl)amino)-1H-pyrazolo[3,4-d]pyrimidin-1-yl)cyclohexane-1-carboxamide]	< 100 nM
COc1cc2c(cc1Nc1ncc3cnn(C[C@H]4[C@@H](O)CCN4C(C)=O)c3n1)CN(C)CC2 [Example 131]	> 251 nM
CN1CCc2ccc(Nc3ncc4cnn(CCS(C)(=O)=O)c4n3)cc2C1 [Example 150, 2-methyl-N-(1-(2-(methylsulfonyl)ethyl)-1H-pyrazolo[3,4-d]pyrimidin-6-yl)-1,2,3,4-tetrahydroisoquinolin-7-amine]	< 100 nM
CN1CCc2ccc(Nc3ncc4cnn(C5COC5)c4n3)cc2C1 [Example 1, 2-methyl-N-(1-(oxetan-3-yl)-1H-pyrazolo[3,4-d]pyrimidin-6-yl)-1,2,3,4-tetrahydroisoquinolin-7-amine]	< 100 nM
COc1cc2c(cc1Nc1ncc3cnn(C[C@H]4C[C@@H](NC(C)=O)C4)c3n1)CN(C)CC2 [Example 119, cis N-(3-((6-((6-methoxy-2-methyl-1,2,3,4-tetrahydroisoquinolin-7-yl)amino)-1H-pyrazolo[3,4-d]pyrimidin-1-yl)methyl)cyclobutyl)acetamide]	< 100 nM
COc1nc2c(cc1Nc1ncc3cnn(C[C@@H]4CC[C@H](C)N4C(C)=O)c3n1)CN(C)CC2 [Example 172, 1-[(2S,5S)-2-[[6-[(2-methoxy-6-methyl-7,8-dihydro-5H-1,6-naphthyridin-3-yl)amino]pyrazolo[3,4-d]pyrimidin-1-yl]methyl]-5-methyl-pyrrolidin-1-yl]ethenone]	< 100 nM
CN1CCc2ccc(Nc3ncc4cnn(CC5COC5)c4n3)cc2C1 [Example 14, 2-methyl-N-(1-(oxetan-3-ylmethyl)-1H-pyrazolo[3,4-d]pyrimidin-6-yl)-1,2,3,4-tetrahydroisoquinolin-7-amine]	< 100 nM

Second part, the molecule after the results:

IC50	SMILES
< 100 nM	COc1cc2c(cc1Nc1ncc3cnn(C[C@H]4CN(C(C)=O)CCO4)c3n1)CN(C)CC2 [Example 127, (R)-1-(2-((6-((6-methoxy-2-methyl-1,2,3,4-tetrahydroisoquinolin-7-yl)amino)-1H-pyrazolo[3,4-d]pyrimidin-1-yl)methyl)morpholino)ethan-1-one trifluoroacetate]
< 100 nM	COc1cc2c(cc1Nc1ncc3cnn(C[C@@H]4CCCCN4C(C)=O)c3n1)CN(C)CC2 [Example 134, (S)-1-(2-((6-((6-methoxy-2-methyl-1,2,3,4-tetrahydroisoquinolin-7-yl)amino)-1H-pyrazolo[3,4-d]pyrimidin-1-yl)methyl)piperidin-1-yl)ethan-1-one]
100 to 250 nM	COc1cc2c(cc1Nc1ncc3cnn(C[C@H](C)NS(C)(=O)=O)c3n1)CN(C)CC2 [Example 94, N-[(1S)-2-[6-[(6-methoxy-2-methyl-3,4-dihydro-1H-isoquinolin-7-yl]amino]pyrazolo[3,4-d]pyrimidin-1-yl]-1-methyl-ethyl]methanesulfonamide]
< 100 nM	CC(C)n1nc(C(F)(F)F)c2cnc(Nc3ccc4c(c3)CN(C)CC4)nc21 [Example 6, N-[1-isopropyl-3-(trifluoromethyl)pyrazolo[3,4-d]pyrimidin-6-yl]-2-methyl-3,4-dihydro-1H-isoquinolin-7-amine]
< 100 nM	COc1cc2c(cc1Nc1ncc3c(C)nn([C@H]4CC[C@H](O)CC4)c3n1)CN(C)CC2 [Example 50, trans-4-(6-((6-methoxy-2-methyl-1,2,3,4-tetrahydroisoquinolin-7-yl)amino)-3-methyl-1H-pyrazolo[3,4-d]pyrimidin-1-yl)cyclohexan-1-ol]
< 100 nM	COc1cc2c(cc1Nc1ncc3cnn(C[C@H]4C[C@H]4CO)c3n1)CN(C)CC2 (relative stereo) [Example 205, (cis-2-((6-((6-methoxy-2-methyl-1,2,3,4-tetrahydroisoquinolin-7-yl)amino)-1H-pyrazolo[3,4-d]pyrimidin-1-yl)methyl)cyclopropyl)methanol]
< 100 nM	COc1cc2c(cc1Nc1ncc3cnn(C[C@@H]4C[C@H](F)CN4C(C)=O)c3n1)CN(CCO)CC2 [Example 222, 1-((2S,4S)-4-fluoro-2-((6-((2-(2-hydroxyethyl)-6-methoxy-1,2,3,4-tetrahydroisoquinolin-7-yl)amino)-1H-pyrazolo[3,4-d]pyrimidin-1-yl)methyl)pyrrolidin-1-yl)ethan-1-one]
< 100 nM	CCOC(=O)Cn1ncc2cnc(Nc3ccc4c(c3)CN(C)CC4)nc21 [Example 9, Ethyl 2-[6-[(2-methyl-3,4-dihydro-1H-isoquinolin-7-yl)amino]pyrazolo[3,4-d]pyrimidin-1-yl]acetate]
< 100 nM	COc1cc2c(cc1Nc1ncc3cnn([C@H]4C[C@H](CNS(C)(=O)=O)C4)c3n1)CN(C)CC2 [Example 121, N-((trans-3-(6-((6-methoxy-2-methyl-1,2,3,4-tetrahydroisoquinolin-7-yl)amino)-1H-pyrazolo[3,4-d]pyrimidin-1-yl)cyclobutyl)methyl)methanesulfonamide trifluoroacetate]
< 100 nM	COc1cc2c(cc1Nc1ncc3cnn(C[C@@H]4CC[C@H](C)N4C(C)=O)c3n1)CN(C)CC2 [Example 171, 1-[(2S,5S)-2-[[6-[(6-methoxy-2-methyl-3,4-dihydro-1H-isoquinolin-7-yl)amino]pyrazolo[3,4-d]pyrimidin-1-yl]methyl]-5-methyl-pyrrolidin-1-yl]ethanone]
< 100 nM	COc1cc2c(cc1Nc1ncc3cnn(C[C@]4(C)CCCN4C(C)=O)c3n1)CN(C)CC2 [Example 135, (S)-1-(2-((6-((6-methoxy-2-methyl-1,2,3,4-tetrahydroisoquinolin-7-yl)amino)-1H-pyrazolo[3,4-d]pyrimidin-1-yl)methyl)-2-methylpyrrolidin-1-yl)ethan-1-one]
< 100 nM	COc1cc2c(cc1Nc1ncc3cnn(CC4CC4(F)F)c3n1)CN(C)CC2 (stereo not shown) [Example 206, N-(1-((2,2-difluorocyclopropyl)methyl)-1H-pyrazolo[3,4-d]pyrimidin-6-yl)-6-methoxy-2-methyl-1,2,3,4-tetrahydroisoquinolin-7-amine]
< 100 nM	COc1cc2c(cc1Nc1ncc3cnn(CCNS(C)(=O)=O)c3n1)CN(C)CC2 [Example 88, N-[2-[6-[(6-methoxy-2-methyl-3,4-dihydro-1H-isoquinolin-7-yl)amino]pyrazolo[3,4-d]pyrimidin-1-yl]ethyl]methanesulfonamide]
< 100 nM	COc1cc2c(cc1Nc1ncc3cnn([C@H]4CCC[C@H](C(N)=O)C4)c3n1)CN(C)CC2 (stereo in doubt) [Example 40, (1S,3S)-3-(6-((6-methoxy-2-methyl-1,2,3,4-tetrahydroisoquinolin-7-yl)amino)-1H-pyrazolo[3,4-d]pyrimidin-1-yl)cyclohexane-1-carboxamide]
< 100 nM	COc1cc2c(cc1Nc1ncc3cnn(C[C@@H]4C[C@H](F)CN4C(C)=O)c3n1)CN(C)CC2 [Example 146, 1-[(2S,4S)-4-fluoro-2-[[6-[(6-methoxy-2-methyl-3,4-dihydro-1H-isoquinolin-7-yl)amino]pyrazolo[3,4-d]pyrimidin-1-yl]methyl]pyrrolidin-1-yl]ethan-1-one]
< 100 nM	COc1cc2c(cc1Nc1ncc3cnn(C[C@@H]4CCCN4C(N)=O)c3n1)CN(C)CC2 [Example 217, (2S)-2-[[6-[(6-methoxy-2-methyl-3,4-dihydro-1H-isoquinolin-7-yl)amino]pyrazolo[3,4-d]pyrimidin-1-yl]methyl]pyrrolidine-1-carboxamide]
